“Also recorded” adds a separate entry of the source.
How the values were obtained:
[1] = tested on: emulsion-induced hyperlipidemic rats; experiment: Test 1: antihyperlipidemic activity in emulsion-induced hyperlipidemic rats; assay type: in vivo, Male S.D. rats; conditions: via stomach tube daily, 3 days; for Reduction rate of serum Chol. / Increase rate of serum HDLChol.: vs control group; for Degree of hepatomegaly (change rate of the liver weight): liver weight per 100 g body weight vs control group
Method: The antihyperlipidemic activity in emulsion-induced hyperlipidemic rats:
Male S.D. rats weighing 80-90 g (4 weeks old) were used. They were divided into groups of 5 to 6 rats each. The test compounds suspended in 0.5% CMC-Na(carboxymethyl cellulose sodium salt) were given to the rats in a daily dose of 4 ml/kg via stomach tube every 10:00 a.m. After 30 min., lipids emulsion having the following composition was orally given to the rats in an amount of 2.5 ml per rat.
During the experimental period of 3 days, the rats were fed on a standard commercial diet and water ad libitum. […] The total cholesterol and HDL cholesterol were measured.
The weight of the liver was measured. To the control group, only the aqueous CMC-Na solution and the lipids emulsion were given.
The fractionation of lipoproteins was conducted by a dextran sulfate-MgCl2 precipitation method.
Cholesterol in serum was measured by means of a cholesterol measuring kit (Cholesterol C-Test Wako, manufactured by Wako Junyaku Co., Ltd.), and cholesterol in HDL was measured by means of NC Hi-Set, manufactured by Nippon Chemiphar Co., Ltd.
Further, the reduction rate of Chol was calculated by the following equation. [formula] where A is the amount of serum Chol (mg/dl) of the control group, and B is the amount of serum Chol (mg/dl) of the group to which the therapeutic agent was administered.
Likewise, the increase rate of HDL-Chol was calculated by the following equation. [formula] where C is the amount of serum HDL-Chol (mg/dl) of the control group, and D is the amount of serum HDL-Chol (mg/dl) of the group to which the therapeutic agent was administered.
The degree of hepatomegaly (i.e. the change rate of the liver weight) was calculated by the following equation. [formula] where E is the liver weight (g) per 100 g of the body weight of the control group, and F is the liver weight (g) per 100 g of the body weight of the group to which the therapeutic agent was administered.

[2] = Test 2: acute toxicity; conditions: mouse, in vivo, po, 1000 mg/kg in corn oil, male ddY mice, after seven days
Method: The test compounds dissolved in corn oil were administered p.o. to male ddY mice. The acute toxicity was determined based on the mortality after seven days. In respect of the compounds of Examples 1 and 2 of the present invention, the mortality was 0% even at a dose of as high as 1000 mg/kg by oral administration.

[3] = literature, in words; cited from earlier work
[4] = animal experiments; Cancer Res., 39, 3419 (1979); cited from earlier work
[5] = tested on: serum lipid; conditions: Science, 193, 903 (1976); J. Lipid Res., 12, 596 (1971); cited from earlier work
[6] = 300 mg/kg, minus value represents a reduction rate

| Compound | Reduction rate of serum Chol. ([1]; 300 mg/kg) [%] | Increase rate of serum HDLChol. [1, 6] [%] | Degree of hepatomegaly (change rate of the liver weight) ([1]; 300 mg/kg) [%] | mortality at 168 h [2] [%] | subsidiary ill effects [3] | further results |
| --- | --- | --- | --- | --- | --- | --- |
| CCCCCCCCCCCCCCCCOc1c2ncnc(SCC(=O)O)c2nn1C [Example 2, 2-Methyl-3-cetyloxy-7-carboxymethylthio-pyrazolo[4,3-d]pyrimidine] | 41.0 | 14.1 | 9.2 | 0 |  |  |
| CCOC(=O)C(C)(C)Oc1ccc(Cl)cc1 [Clofibrate, reference compound] | 35.6 | -18.2 | 12.1 |  | myalgia or hepatic insufficiency; also recorded: likely to lead to gallstone formation | hepatic carcinoma [4]: brings about hepatic carcinoma |
| Nc1ncnc2[nH]ncc12 [1H-pyrazolo[3,4-d]pyrimidine-4-amine] |  |  |  |  |  | function to reduce serum lipid [5]: function to reduce serum lipid |
| O=C(O)c1cccnc1 [nicotinic acid] |  |  |  |  | flashing or gastroenteric troubles |  |
| CCCCC/C=C\C/C=C\CCCCCCCCOc1c2ncnc(SCC(=O)O)c2nn1C [Example 1, 2-Methyl-3-linoleyloxy-7-carboxymethylthio-pyrazolo[4,3-d]pyrimidine] | 73.5 | -17.7 | 17.8 | 0 |  | Increase rate of serum HDLChol. ([1]; 25 mg/kg): 21.8%; Reduction rate of serum Chol. ([1]; 25 mg/kg): 25.6%; Degree of hepatomegaly (change rate of the liver weight) ([1]; 25 mg/kg): 6.0%; Increase rate of serum HDLChol. ([1]; 50 mg/kg): 13.4%; Reduction rate of serum Chol. ([1]; 50 mg/kg): 35.5%; Degree of hepatomegaly (change rate of the liver weight) ([1]; 50 mg/kg): 7.6% |
